# Experimental data as given in patent US12517098B2, “Monitoring polysorbate hydrolysis in pharmaceutical formulations using an ultrasensitive extraction-free fatty acid quantitation method” (Regeneron Pharmaceuticals, Inc., priority 2021, dated 2026).
# Tests used:
# [1] = Loss of heavy-isotope-labeled fatty acids during incubation (adsorption to container); assay type: physicochemical; details: 1% PS20, 200 mg/mL mAb3, 37° C., plastic tubes
# Description: The hydrolysis of PS20 in mAb formulations used for the fatty acid quantitation method of the invention was optimized by mixing 60 μL of 200 mg/mL mAb-3 (10 mM histidine, pH 6.3) with 0.62 μL, 1.26 μL, 3.2 μL and 6.8 μL 10% PS20 with or without 1.5 μL ISTD mixture (200 μg/mL lauric-d23 acid, 40 μg/mL myristic-d27 acid, and oleic acid-^13C18 in 20% methanol) in Eppendorf plastic tubes (category number 022431064) or Waters glass vials (SKU 600000668CV), […] Incubation samples were analyzed by LC multiple reaction monitoring (LC-MRM) after extraction (Table 2). Incubation conditions were optimized for measuring fatty acid content using LC-MRM after extraction. Fatty acids were extracted from mAb solution using an extraction protocol developed by Honemann et al. with an optimized precipitation buffer and extraction time (Honemann et al.). […] Subsequently, 40 μL of the supernatant was transferred to a 96-well plate, and 5 μL was subjected to LC-MRM for quantitation. […] Elution was performed at 0.4 mL/minute, and peaks at 1-7 minutes were analyzed using an ESI source operating in negative mode, with a gas temperature of 200° C., gas flow of 12 L/minute, nebulizer gas pressure of 20 psi, sheath gas temperature of 300° C., sheath gas flow of 11 L/min, capillary voltage of −3000 V, and nozzle voltage of 500 V. Lauric acid and lauric-d23 acid were monitored at 199.1/199.1 and 222.3/222.3; myristic acid and myristic-d27 acid were monitored at 227.2/227.2 and 254.4/254.4; palmitic acid, oleic acid, oleic acid-^13C18, stearic acid, and linoleic acid were monitored at 255.2/255.2, 281.2/281.2, 299.2/299.2, 283.2/283.2, and 279.2/279.2 with CE 5, respectively. […] Peak integration was performed by Skyline, and fatty acid concentrations were calculated based on a calibration curve created from a spiked-in fatty acid concentration plot against To investigate why fatty acids were lost during incubation, isotope-labeled fatty acids were employed. […]
# [2] = Solubility of free fatty acid in the formulation; assay type: physicochemical; details: mAb formulation, aqueous with cosolvent or surfactant or cyclodextrin
Structure (SMILES),fatty acid lost after 6-day incubation [1] [%],solubility [2] [µg/mL]
CCCCCCCCCCCCCC(=O)O [myristic acid],34,
CCCCCCCC/C=C\CCCCCCCC(=O)O [oleic acid],15,
CCCCCCCCCCCC(=O)O [lauric acid],50,> 20
